Measured values from patent US11524977B2, “Ultrasound-assisted simulated digestion method of milk protein active peptide and application thereof in health foods” (JIANGSU UNIVERSITY, priority 2017, dated 2022).
Several values for one entry are separate records, joined by “and”; a condition that tells them apart may be missing. Equal entries are not always repeated.

Tests used:
[1] = literature report, in words; cited from earlier work
VCAM-1 = settings: synthesized peptide 100 μM
Description: (§1) The peptides were subjected to study the anti-inflammatory activity; the levels of intercellular adhesion molecule (ICAM-1) and vascular cell adhesion molecule (VCAM-1) expressed in EA.hy926 cells were detected by Western blot as inflammatory biomarkers. The EA, hy926 cells with passage number <12 were grown in 48-well plates. The cells reaching 80-90% confluence were treated with various concentrations (2.5 mg/mL of hydrolysates and digests, 0.2 mM and 3.0 mM of synthetic peptides) of the samples for 18 h. Then the cells were stimulated with TNF-α at 10 ng/mL and incubated for an additional 6 h in order to induce inflammation.
(§2) After the treatment period, the culture medium of the EA. hy926 cells was discarded and a boiling Laemmle buffer containing 0.2% TritonX-100 and 50 μM dithiothreitol was added to lysate the cells. The cell lysates were then run on 9% sodium dodecyl sulfate polyacrylamide gel electrophoresis. The gels were transferred onto nitrocellulose membranes, and immunoblotted with anti-ICAM-1/anti-VCAM-1 antibodies. The concentration of antibody to α-tubulin used was 0.4 μg/mL, while that for all other antibodies was 0.1 μg/mL. The protein bands were scanned using Licor Odyssey BioImager (Licor Biosciences, Lincoln, NB, USA) and quantified by densitometry using Image Studio Lite 5.2.

ICAM-1 = settings: synthesized peptide 100 μM
Description: as §1, §2

In the case of “VLVLDTDYK [peptide obtained by enzymolysis of β-LG]”, the antibacterial activity [1] is given as “strong antibacterial activity”.

For Phe-Tyr-Gln-Ala [FYQA], the “VCAM-1 (TNF-α)” value (VCAM-1) was 41.3 TNF-α and 41.3 ± 10.6 TNF-α and the “ICAM-1 (%TNF-α)” value (ICAM-1) was 56.6 %TNF-α and 56.6 ± 9.0 %TNF-α.

For “AASDISLLDAQSAPLR [peptide obtained by enzymolysis of β-LG]”, the antibacterial activity [1] is listed as “strong antibacterial activity”.

For Leu-Gln-Tyr [LQY], the “VCAM-1 (TNF-α)” value (VCAM-1) was 33.7 TNF-α and 33.7 ± 6.9 TNF-α and the “ICAM-1 (%TNF-α)” value (ICAM-1) was 48.2 %TNF-α and 48.2 ± 6.3 %TNF-α.

For “IPAVFK: peptide obtained by enzymolysis of β-LG (UniProt P02754 94-99, looked up, fragment)”, the antibacterial activity [1] is given as “strong antibacterial activity”.
